Earlier results on three compounds are cited in patent publication US20180243282A1, “Preparation and Use of Combination Enzyme and Gastrointestinal Modulator Delivery Systems” (Curemark, LLC, priority 2010, published 2018).

For data set [1] the following is noted: in vivo.
For data set [2] the following is noted: in vivo. This is another data set of the same source.
The conditions of data set [3]: acidic conditions in the stomach.

`CN/C(=N/CCSCc1nc[nH]c1C)NC#N` [cimetidine]: in data set [1], the clearance by hemodialysis result is recorded as “cleared by hemodialysis”.

As for Bismuth, in data set [2], the excretion entry is “excreted in the feces” and the systemic absorption entry is listed as “largely unabsorbed”.

Regarding sucralfate, the protective coating lasts result in data set [3] was “up to 6 hours”. Further, in data set [2], the systemic absorption result is reported as “lack of systemic absorption” and the systemic toxicity entry is “no systemic toxicity”.
